Row | Structure (SMILES) | logP
1 | CCOc1cncc(C(N)=O)n1 | 0.61
2 | Cc1cncc(C(N)=O)n1 | -0.13
3 | CCOC(=O)c1nccnc1C(=O)OCC | 0.65
4 | COc1cnc(OC)cn1 | 1.14
5 | CN(C)c1cncc(C#N)n1 | 1.12
6 | COc1ccnc(C#N)n1 | 0.86
7 | CSc1nccnc1C | 1.81
8 | Cc1cnc(C(N)=O)cn1 | -0.25
9 | Cc1cncc(C#N)n1 | 0.44
10 | COc1cncc(N(C)C)n1 | 1.99
11 | Nc1cncc(N)n1 | -0.45
12 | COC(=O)c1ccc(Br)o1 | 1.84
13 | CCOC(=O)c1cncc(C)n1 | 0.51
14 | COc1cnc(N(C)C)cn1 | 1.65
15 | COc1cncc(OC)n1 | 1.58
16 | Cc1nc(C#N)c(C#N)nc1Cl | 1.29
17 | Cc1nccnc1OC(C)C | 2.24
18 | COC(=O)c1nccnc1C(=O)OC | -0.02
19 | Cc1cnc(C)c(C)n1 | 0.95
20 | N#Cc1nccnc1C#N | 0.38
21 | CCCCc1nc(C#N)c(C#N)nc1Cl | 2.89
22 | Clc1cnc(Cl)cn1 | 1.58
23 | Cc1nccnc1C | 0.54
24 | CCc1nccnc1CC | 1.51
25 | Cc1cnc(Cl)cn1 | 1.08
26 | CCc1ncc(C)nc1CC | 1.95
27 | Cc1cncc(N(C)C)n1 | 1.57
28 | COC(=O)c1cncc(C)n1 | 0.1
29 | COC(=O)c1cncc(OC)n1 | 0.69
30 | CC(=O)Nc1cncc(C)n1 | 0.38

The next lines start with the values.

Row | logP | Structure (SMILES)
31 | 1.79 | CCc1nc(C#N)c(C#N)nc1Cl
32 | 2.1 | CCCCc1nccnc1C
33 | 0.63 | COc1cnc(N)cn1
34 | 0.56 | CC(=O)Nc1cnc(Cl)cn1
35 | 1.99 | CCOc1cnc(Cl)cn1
36 | 1.57 | CCCc1nccnc1C
37 | 0.73 | COc1cncc(N)n1
38 | 0.82 | COc1cncc(NC(C)=O)n1
39 | 0.54 | Cc1cncc(C)n1
40 | 0.95 | COc1cncc(C#N)n1
41 | 1.07 | CCc1nccnc1C
42 | 0.38 | CN(C)c1cncc(C(N)=O)n1
43 | 1.24 | CCOC(=O)c1cncc(N(C)C)n1
44 | 1.5 | Cc1cnc(C)c(Cl)n1
45 | 0.13 | COc1cncc(C(N)=O)n1
46 | 2.55 | CCOc1cncc(OCC)n1
47 | 1.52 | COc1cnc(Cl)cn1
48 | 1.29 | COc1cncc(C)n1
49 | 0.9 | COC(=O)c1cncc(N(C)C)n1
50 | 0.26 | Cc1cnc(C#N)cn1
51 | 1.7 | CN(C)c1cnc(Cl)cn1
52 | 0.61 | CCOC(=O)c1cnc(C)cn1
53 | 1.24 | COc1nccnc1C
54 | 1.28 | Cc1nc(C)c(C)nc1C
55 | 0.17 | COC(=O)c1cnc(C)cn1
56 | 1.2 | CCOC(=O)c1cncc(OC)n1
57 | 1.98 | CCOc1cncc(OC)n1
58 | 0.35 | Cc1cncc(N)n1
